# Source: article PMC9434606 (RSC Advances, 2022)
# Biological target: T1, pancreatic lipase (Sus scrofa, UniProt P00591)
# T1 sequence (P00591 1-450): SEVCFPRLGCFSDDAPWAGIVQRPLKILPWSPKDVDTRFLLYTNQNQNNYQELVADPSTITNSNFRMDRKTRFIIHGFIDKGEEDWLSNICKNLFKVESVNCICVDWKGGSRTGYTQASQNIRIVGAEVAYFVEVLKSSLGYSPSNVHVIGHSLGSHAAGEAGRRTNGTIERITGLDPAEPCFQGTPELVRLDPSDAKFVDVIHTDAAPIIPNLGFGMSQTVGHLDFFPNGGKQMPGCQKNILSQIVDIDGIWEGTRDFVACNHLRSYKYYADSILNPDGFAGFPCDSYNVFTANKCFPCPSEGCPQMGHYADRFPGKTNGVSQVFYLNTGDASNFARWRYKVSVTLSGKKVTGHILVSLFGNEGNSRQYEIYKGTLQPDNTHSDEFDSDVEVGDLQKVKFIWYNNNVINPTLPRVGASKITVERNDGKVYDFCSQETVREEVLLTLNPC
# Test: pancreatic lipase inhibition assay
# Assay type: biochemical
row,Compound,IC50
1,"COc1cc(O)c2c(c1)C1(OC2=O)C(C)=CC(=O)C1O (stereo not drawn) [Compound 1, talaroflavone]",73.8 ± 0.82 µM
2,"COc1cc(O)c(C(=O)O)c(-c2cc(O)c(O)cc2C)c1 [Compound 4, altenusin]",21.5 ± 0.97 µM
3,"Cc1cc(O)cc2oc(=O)c3c(O)cc(O)cc3c12 [Compound 5, alternariol]",56.8 ± 0.77 µM
